Laboratory results reported in EP0454060B1, “3-(Mercaptoalkyl)-quinazoline-2,4(1H,3H)-diones, processes for their preparation, and pharmaceutical compositions” (priority 1990, dated 1991).

Tests used:
Herpes simplex Typ 1 = test: One-step replication cycle on chick embryo cells; type: cell-based; conditions: Beispielreihe 2, HEZ
Coxsackie A 9-Virus = test: Antiviral test in vitro; type: cell-based
Adeno-Virus Typ 4 = test: Antiviral test in vitro; type: cell-based
Influenza A/WSN [1] = test: Plaque reduction test on primary HEZ; conditions: mean of two experiments
[2] = system: Kontaktüberempfindlichkeit vom verzögerten Typ (Effektor-T-Lymphozyten-Aktivität); test: Percutaneous test for contact hypersensitivity after DNFB immunisation; type: in vivo, Meerschweinchen (Albino-Koloniezucht); conditions: Sensibilisierungsgrad versus control group; 2 mg/kg daily peroral, day +1 to +6; screening values; from 120 stimulatory, below 80 suppressive
Excerpt: Der Nachweis einer immunregulatorischen Wirksamkeit wurde am Meerschweinchen (Albino-Koloniezucht) und u. a. mit Hilfe folgender Techniken geführt: • Perkutaner Test zum Nachweis einer Kontaktüberempfindlichkeit vom verzögerten Typ (Effektor-T-Lymphozyten-Aktivität), • Takatsy-Test zum Nachweis DNP-spezifischer Serumantikörper (humorale Immunantwort).
Der Nachweis der antiviralen Wirksamkeit erfolgte in vitro an Hühnerembryonalzellen mit Vertretern verschiedener Virusgruppen. 1. Untersuchungen zur immunregulatorischen Wirksamkeit 1.1 Perkutaner Test zum Nachweis einer Kontaktüberempfindlichkeit Die epikutane Applikation von Dinitrofluorbenzol (DNFB) führt beim Meerschweinchen und bei der Maus zur Entwicklung einer verzögerten Überempfindlichkeit, eines Immunstatus, der an die klonale Vermehrung TNP-spezifischer T-Lymphozyten (TDTH-Ly) gebunden ist. Erfolgt nach einer Latenzperiode von mindestens 5 Tagen eine erneute DNFB-Applikation, kommt es zu einer Freisetzung von Lymphokinen durch Reaktion mit den TDTH-Ly dieses Hautbereiches und dadurch zu einer lokal begrenzten Entzündungsreaktion. Sieben Tage nach der Immunisierung mit 1 %igem DNFB wurden die Flanken der Versuchstiere enthaart und durch Aufbringen je eines Tropfens 0,5 %, 0,1 %, 0,05 %, 0,025 % und 0,01 %iger DNFB-Lösung getestet. Die noch positive Konzentration ist dem Grad der Sensibilisierung umgekehrt proportional. Die Testergebnisse ergeben sich aus Stärke und Anzahl der positiven Hautreaktionen, der Stimulierungsindex (SI) aus dem Vergleich der Test- und Kontrolltiere. Die Substanzbehandlung erfolgte peroral. Mittels Schlundsonde wurde eine tägliche Dosis von 2 mg/kg Körpermasse als Suspension in Wasser gegeben. Behandlungsdauer: 1 Tag + 1 (ein Tag nach der Immunisierung) bis +6. Die Kontrolltiere erhielten nur die eingesetzte Lactose. 1.2 Takatsy-Test Nach Immunisierung mit Dinitrofluorbenzol (DNFB) kommt es beim Meerschweinchen auch zur Bildung DNP-spezifischer humoraler Antikörper, die bevorzugt der IgG1-Substanzklasse angehören. 14 Tage nach primärer epikutaner Applikation von DNFB wurde den Versuchstieren Blut durch Herzpunktion entnommen. Die Bestimmung der Antikörperkonzentration erfolgte nach einer von Takatsy beschriebenen Methode (Takatsy, G.: A new method for the preparation of serial dilutions in a quick and accurate way. Kiserletes Orvostudomany 2 (1950) 263 - 396). Als Indikatorzellen wurden TNP-beladene Schaferythrozyten verwendet (Kopplung nach Rittenberg und Pratt; Rittenberg, M. B. and Pratt, K. L.: Antitrinitrophenyl (TNP) plaque assay. Primary response of BALB/c mice to soluble and particulate immunogen. Proc. Soc. exp. Biol. Med., 132 (1969) 575 - 579). 1.3 Ergebnisse Sensibilisierungsgrad (%) und Serumantikörperkonzentration (AK-Titer-Differenz) gegenüber der jeweiligen Kontrollgruppe (Screening-Werte)
Aus den Werten wird deutlich, daß die Verbindungen der allgemeinen Formel I einen gut nachweisbaren Effekt auf die Effektor-T-Lymphozyten-abhängige verzögerte Uberempfindlichkeit haben. Kontaktdermatitis-Werte ab 120 (≙ 20 % Steigerung gegenüber der Kontrolle) bzw. unter 80 werden als Nachweis eines stimulatorischen bzw. suppressorischen Effektes angesehen. Antikörpertiter-Differenzen von >+1 bzw. <-1 verdeutlichen den stimulatorischen bzw. suppressorischen Effekt der Substanzen auf die humorale Immunantwort. 2. Untersuchungen zur immunstimulierenden Wirkung • 2.1 Plaque-Test zum Nachweis von SE-spezifischen IgM- und IgG-PBZ Zur Prüfung immunstimulierender Effekte wurde u. a. auch der Einfluß von Verbindungen der allgemeinen Formel I auf die humorale Immunantwort an Mäusen des Inzuchtstammes CBA und mittels Hämolyse-Plaque-Test (HPT) untersucht. Diese Technik erlaubt die quantitative und getrennte Erfassung IgM- und IgG-Antikörper produzierender Zellen (= Plaque bildende Zellen; PBZ). […]

Influenza A/WSN [3] = test: One-step replication cycle on permanent human kidney cell line
[4] = 250 µmol/l, mean of three experiments

| Structure (SMILES) | Senkung des Virusertrages im Vergleich zur unbehandelten Kontrolle (Herpes simplex Typ 1; 125 µmol/l, mean of three experiments) | % Hemmung (Herpes simplex Typ 1; 125 µmol/l, n.s. = nicht signifikant) | % Hemmung (Herpes simplex Typ 1; [4]) | Senkung des Virusertrages im Vergleich zur unbehandelten Kontrolle (Herpes simplex Typ 1; [4]) | antivirale Wirkung (Coxsackie A 9-Virus) | antivirale Wirkung (Adeno-Virus Typ 4) | Plaquereduktion in % zur Viruskontrolle auf primären HEZ (Influenza A/WSN [1]; 125 µmol/l) | Plaquereduktion in % zur Viruskontrolle auf primären HEZ (Influenza A/WSN [1]; 250 µmol/l) | Plaquereduktion in % zur Viruskontrolle auf primären HEZ (Influenza A/WSN [1]; 31,25 µmol/l, 31.25 µM) | Plaquereduktion in % zur Viruskontrolle auf primären HEZ (Influenza A/WSN [1]; 62,5 µmol/l, 62.5 µM) | Kontaktdermatitis (Kontrolle: 100) 24-Stunden-Reaktion [2] | % Hemmung (Influenza A/WSN [3]; Beispielreihe 5a, 125 µmol/l) | Senkung des Virusertrages im Vergleich zur unbehandelten Kontrolle (Influenza A/WSN [3]; Beispielreihe 5a, 125 µmol/l) | % Hemmung (Influenza A/WSN [3]; Beispielreihe 5a, 250 µmol/l) | Senkung des Virusertrages im Vergleich zur unbehandelten Kontrolle (Influenza A/WSN [3]; Beispielreihe 5a, 250 µmol/l) | Senkung des Virusertrages im Vergleich zur unbehandelten Kontrolle (Influenza A/WSN [3]; Beispielreihe 5a, 31,25 µmol/l) | Senkung des Virusertrages im Vergleich zur unbehandelten Kontrolle (Influenza A/WSN [3]; Beispielreihe 5a, 62,5 µmol/l) | % Hemmung (Influenza A/WSN [3]; Beispielreihe 5a, 62,5 µmol/l, n. s. = nicht signifikant) |
| --- | --- | --- | --- | --- | --- | --- | --- | --- | --- | --- | --- | --- | --- | --- | --- | --- | --- | --- |
| O=c1[nH]c2ccccc2c(=O)n1CCS [Beispiel 1, 3-(2-Mercaptoethyl)-chinazolin-2,4(1H,3H)-dion] | 0,33 log10 TCID50/0,2 ml | n. s. | 99% | 1,0 log10 TCID50/0,2 ml | nicht antiviral wirksam | nicht antiviral wirksam | 98% | 100% | 85% | 92% | – | – | – | – | – | – | – | – |
| COc1cc2[nH]c(=O)n(CCCS)c(=O)c2cc1OC [Beispiel 2, 3-(3-Mercaptoprop-1-yl)-6,7-dimethoxychinazolin-2,4(1H,3H)-dion] | – | – | – | – | – | – | – | – | – | – | 180% | 99,0% | 2,0 log10 TCID50/0,2 ml | 99,99% | 6,17 log10 TCID50/0,2 ml | 0 log10 TCID50/0,2 ml | 0,5 log10 TCID50/0,2 ml | n. s. |
